Experimental data as given in ChEMBL document CHEMBL2016471, “5-benzylidenerhodanine and 5-benzylidene-2-4-thiazolidinedione based antibacterials” (2012).
≈ marks a conversion by molar mass, not a printed value. Calls of active or inactive are those of the source. The rule behind the calls is not given here.

How the values were obtained:
[1] = system: Staphylococcus aureus; experiment: Antibacterial activity against Staphylococcus aureus ATCC 31890; type: functional
[2] = system: Staphylococcus epidermidis; experiment: Antibacterial activity against Staphylococcus epidermidis; type: functional
[3] = system: Bacillus subtilis; experiment: Antibacterial activity against Bacillus subtilis ATCC 6633; type: functional
[4] = system: Escherichia coli; experiment: Antibacterial activity against Escherichia coli K-12; type: functional, organism-based
[5] = system: Escherichia coli; experiment: Antibacterial activity against TolC-deficient Escherichia coli; type: functional
[6] = system: Staphylococcus aureus; experiment: Bacteriostatic activity against Staphylococcus aureus after 6 hrs; type: functional, organism-based

Structure (SMILES)	MIC [1] [µg/mL]	MIC [2] [µg/mL]	MIC [3] [µg/mL]	MIC [5] [µg/mL]	Activity [4]	Activity [6]
CCCc1ccccc1NC(=O)[C@H](Cc1ccccc1)NC(=O)c1ccc(/C=C2\SC(=S)NC2=O)cc1	> 64	> 64	> 64	–	inactive	–
CCCc1ccccc1NC(=O)[C@H](Cc1ccc(O)cc1)NC(=O)c1ccc(/C=C2\SC(=S)NC2=O)cc1	> 64	> 64	8 (≈ 14.7 µM)	–	inactive	–
O=C1NC(=S)S/C1=C\c1ccc2ccccc2c1	0.5 (≈ 1.84 µM)	0.5 (≈ 1.84 µM)	> 64	8 (≈ 29.5 µM)	inactive	–
O=C1NC(=O)/C(=C/c2cccnc2)S1	> 64	> 64	> 64	–	inactive	–
CCCc1ccccc1NC(=O)[C@H](CO)NC(=O)c1ccc(/C=C2\SC(=S)NC2=O)cc1	> 64	> 64	> 64	–	inactive	–
CCCc1ccccc1NC(=O)[C@H](Cc1ccccc1)NC(=O)c1ccc(/C=C2\SC(=O)NC2=O)cc1	> 64	> 64	8 (≈ 15.6 µM)	–	inactive	–
O=C1NC(=S)S/C1=C\c1ccco1	16 (≈ 75.7 µM)	16 (≈ 75.7 µM)	> 64	–	inactive	–
CCCc1ccccc1NC(=O)[C@H](COCc1ccccc1)NC(=O)c1ccc(/C=C2\SC(=S)NC2=O)cc1	> 64	> 64	8 (≈ 14.3 µM)	–	inactive	–

Further lines, with some results ahead:

MIC [1] [µg/mL]	MIC [2] [µg/mL]	MIC [3] [µg/mL]	MIC [5] [µg/mL]	Structure (SMILES)	Activity [4]	Activity [6]
> 64	> 64	> 64	–	O=C1NC(=S)S/C1=C\c1ccc(C(=O)O)cc1	inactive	–
> 64	> 64	> 64	–	O=C1NC(=O)/C(=C/c2ccc(C(=O)O)cc2)S1	inactive	–
> 64	> 64	32 (≈ 70.5 µM)	–	CCCc1ccccc1NC(=O)[C@H](C)NC(=O)c1ccc(/C=C2\SC(=S)NC2=O)cc1	inactive	–
16 (≈ 37.2 µM)	32 (≈ 74.5 µM)	16 (≈ 37.2 µM)	–	CCCc1ccccc1OC[C@H](O)COc1ccc(/C=C2\SC(=S)NC2=O)cc1	inactive	Active
16 (≈ 30.4 µM)	16 (≈ 30.4 µM)	8 (≈ 15.2 µM)	–	CCCc1ccccc1NC(=O)[C@H](COC(C)(C)C)NC(=O)c1ccc(/C=C2\SC(=S)NC2=O)cc1	inactive	–
> 64	> 64	> 64	–	O=C1NC(=O)/C(=C/c2ccccc2)S1	inactive	–
> 64	> 64	8 (≈ 19.3 µM)	–	CCCc1ccccc1OC[C@H](O)COc1ccc(/C=C2\SC(=O)NC2=O)cc1	inactive	–
> 64	> 64	8 (≈ 16.7 µM)	–	CCCc1ccccc1NC(=O)[C@H](CC(C)C)NC(=O)c1ccc(/C=C2\SC(=O)NC2=O)cc1	inactive	–
> 64	> 64	32 (≈ 64.6 µM)	–	CCCc1ccccc1NC(=O)[C@H](CC(C)C)NC(=O)c1ccc(/C=C2\SC(=S)NC2=O)cc1	inactive	–
> 64	> 64	> 64	–	CCCc1ccccc1NC(=O)[C@H](C)NC(=O)c1ccc(/C=C2\SC(=O)NC2=O)cc1	inactive	–
> 64	> 64	> 64	–	CCCc1ccccc1NC(=O)[C@H](CO)NC(=O)c1ccc(/C=C2\SC(=O)NC2=O)cc1	inactive	–
